Results published in PubChem BioAssay AID342 (DTP/NCI, 2004).
“And” between values parts separate entries of the source, which are not always exact repeats. Equal values may be shown once.

Test system: Swiss mice, Sarcoma 180 sc, mean tumor weight T/C
Experiment: NCI In Vivo Anticancer Drug Screen. Data for tumor model Sarcoma 180 (subcutaneous) in Swiss mice
Settings: endpoint: mean tumor weight, higher = larger tumour
How it was run: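 Readout is the ratio of treated-group measurement to vehicle-control measurement (T/C), based on survival or tumor size in mice carrying transplanted tumors.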

[1] = dose: 125.0 mg/kg/injection, schedule: Q01DX007 (ip), vehicle: carboxymethylcellulose (CMC)
[2] = dose: 375.0 mg/kg/injection, schedule: Q01DX007 (ip), vehicle: other
[3] = dose: 111.0 mg/kg/injection, schedule: Q01DX007 (sc), vehicle: steriod suspending solution
[4] = dose: 167.0 mg/kg/injection, schedule: Q01DX007 (sc), vehicle: steriod suspending solution
[5] = dose: 250.0 mg/kg/injection, schedule: Q01DX007 (sc), vehicle: steriod suspending solution
[6] = dose: 375.0 mg/kg/injection, schedule: Q01DX007 (sc), vehicle: steriod suspending solution
[7] = dose: 16.0 mg/kg/injection, schedule: Q01DX007 (ip), vehicle: carboxymethylcellulose (CMC)

CCCCCCCCCCCCOP(N)(=O)OCCCCCCCCCCCC
T/C (dose: 20.0 mg/kg/injection, schedule: Q01DX007 (ip), vehicle: carboxymethylcellulose (CMC)): 73 % of control
T/C (dose: 55.0 mg/kg/injection, schedule: Q01DX007 (ip), vehicle: carboxymethylcellulose (CMC)): 86 % of control
T/C (dose: 55.5 mg/kg/injection, schedule: Q01DX007 (ip), vehicle: carboxymethylcellulose (CMC)): 49 % of control
T/C (dose: 80.0 mg/kg/injection, schedule: Q01DX007 (ip), vehicle: carboxymethylcellulose (CMC)): 103 % of control
T/C (dose: 83.0 mg/kg/injection, schedule: Q01DX007 (ip), vehicle: carboxymethylcellulose (CMC)): 71 % of control
T/C (dose: 83.3 mg/kg/injection, schedule: Q01DX007 (ip), vehicle: carboxymethylcellulose (CMC)): 54 % of control
T/C (dose: 120.0 mg/kg/injection, schedule: Q01DX007 (ip), vehicle: carboxymethylcellulose (CMC)): 54 % of control
T/C [1]: 42 % of control
T/C (dose: 187.5 mg/kg/injection, schedule: Q01DX007 (ip), vehicle: carboxymethylcellulose (CMC)): 22 % of control

CNNCc1ccc(C(=O)NC(C)C)cc1
T/C (dose: 100.0 mg/kg/injection, schedule: Q01DX007 (ip), vehicle: saline): 26 % of control
T/C [1]: 36 % of control
T/C (dose: 148.0 mg/kg/injection, schedule: Q01DX007 (ip), vehicle: saline): 22 % of control
T/C (dose: 222.0 mg/kg/injection, schedule: Q01DX007 (ip), vehicle: saline): 16 % of control
T/C (dose: 250.0 mg/kg/injection, schedule: Q01DX007 (ip), vehicle: carboxymethylcellulose (CMC)): 15 % of control
T/C (dose: 333.0 mg/kg/injection, schedule: Q01DX007 (ip), vehicle: saline): 16 % of control
T/C (dose: 500.0 mg/kg/injection, schedule: Q01DX007 (ip), vehicle: saline): 8 % of control

CC(=O)OCC1OC(n2ncc(=O)[nH]c2=O)C(OC(C)=O)C1OC(C)=O (stereo not given)
T/C [2]: 74 % of control
T/C (dose: 750.0 mg/kg/injection, schedule: Q01DX007 (ip), vehicle: other): 93 % of control
T/C (dose: 1500.0 mg/kg/injection, schedule: Q01DX007 (ip), vehicle: other): 74 % of control

COc1ccc2c(c1)CC[C@@H]1[C@@H]2CC[C@@]2(C)[C@H]1CC[C@@]2(O)C(F)=C(F)F
T/C (dose: 33.0 mg/kg/injection, schedule: Q01DX007 (sc), vehicle: steriod suspending solution): 52 % of control
T/C (dose: 50.0 mg/kg/injection, schedule: Q01DX007 (sc), vehicle: steriod suspending solution): 46 % of control
T/C (dose: 75.0 mg/kg/injection, schedule: Q01DX007 (sc), vehicle: steriod suspending solution): 44 % of control
T/C [3]: 45 % of control
T/C [4]: 37 % of control
T/C [5]: 50 % of control
T/C [6]: 55 % of control

CC#CC(C)(O)CC (stereo not given)
T/C (dose: 77.0 mg/kg/injection, schedule: Q#A X014 (ip), vehicle: methylcellulose (MC)): 79 % of control
T/C (dose: 115.5 mg/kg/injection, schedule: Q#A X014 (ip), vehicle: methylcellulose (MC)): 75 % of control
T/C (dose: 175.0 mg/kg/injection, schedule: Q#A X014 (ip), vehicle: methylcellulose (MC)): 51 % of control
T/C (dose: 212.5 mg/kg/injection, schedule: Q#A X014 (ip), vehicle: methylcellulose (MC)): 44 % of control

CCCCOCN1CCCCC1
T/C (dose: 50.0 mg/kg/injection, schedule: Q01DX007 (ip), vehicle: carboxymethylcellulose (CMC)): 64 % of control
T/C (dose: 100.0 mg/kg/injection, schedule: Q01DX007 (ip), vehicle: carboxymethylcellulose (CMC)): 123 % of control

O=c1[nH]c(=S)c2[nH]c(=O)[nH]c2[nH]1
T/C (dose: 50.0 mg/kg/injection, schedule: Q#A X014 (ip), vehicle: methylcellulose (MC)): 94 % of control
T/C (dose: 100.0 mg/kg/injection, schedule: Q#A X014 (ip), vehicle: methylcellulose (MC)): 73 % of control
T/C (dose: 200.0 mg/kg/injection, schedule: Q#A X014 (ip), vehicle: methylcellulose (MC)): 101 % of control

Cc1cc2nc3c(=O)[nH]c(=O)nc-3n(CCOC(=O)CCC(=O)O)c2cc1C
T/C (dose: 14.37 mg/kg/injection, schedule: Q#A X014 (ip), vehicle: carboxymethylcellulose (CMC)): 109 % of control
T/C (dose: 28.75 mg/kg/injection, schedule: Q#A X014 (ip), vehicle: carboxymethylcellulose (CMC)): 122 % of control
T/C (dose: 57.5 mg/kg/injection, schedule: Q#A X014 (ip), vehicle: carboxymethylcellulose (CMC)): 87 % of control
T/C (dose: 115.0 mg/kg/injection, schedule: Q#A X014 (ip), vehicle: carboxymethylcellulose (CMC)): 56 % of control

NC1=CC(=O)c2ccccc2C1=O
T/C (dose: 31.0 mg/kg/injection, schedule: Q01DX007 (ip), vehicle: other): 73 % of control
T/C (dose: 62.0 mg/kg/injection, schedule: Q01DX007 (ip), vehicle: other): 83 % of control

CCCCN(C)N=Nc1n[nH]nc1C(N)=O
T/C [7]: 93 % of control
T/C (dose: 31.0 mg/kg/injection, schedule: Q01DX007 (ip), vehicle: carboxymethylcellulose (CMC)): 85 % of control
T/C (dose: 62.0 mg/kg/injection, schedule: Q01DX007 (ip), vehicle: carboxymethylcellulose (CMC)): 38 % of control

CC(=O)Nc1cc2c(cc1Br)-c1ccccc1C2O (stereo not given)
T/C (dose: 48.0 mg/kg/injection, schedule: Q01DX007 (ip), vehicle: other): 60 % of control
T/C (dose: 73.0 mg/kg/injection, schedule: Q01DX007 (ip), vehicle: other): 93 % of control
T/C (dose: 130.0 mg/kg/injection, schedule: Q01DX007 (ip), vehicle: saline): 40 % of control and 56 % of control
T/C (dose: 195.0 mg/kg/injection, schedule: Q01DX007 (ip), vehicle: saline): 107 % of control
T/C (dose: 250.0 mg/kg/injection, schedule: Q01DX007 (ip), vehicle: other): 36 % of control
T/C [2]: 46 % of control
T/C (dose: 560.0 mg/kg/injection, schedule: Q01DX007 (ip), vehicle: other): 32 % of control

C[C@@H]1CC2=CC(=O)C=C[C@]2(C)[C@H]2CC[C@@]3(C)[C@@H](CC[C@]3(C)O)[C@H]12
T/C [3]: 61 % of control and 72 % of control
T/C [4]: 43 % of control and 62 % of control
T/C [5]: 57 % of control and 76 % of control
T/C [6]: 38 % of control and 42 % of control and 55 % of control
T/C (dose: 750.0 mg/kg/injection, schedule: Q01DX007 (sc), vehicle: steriod suspending solution): 47 % of control and 69 % of control

C/C=C(/C)C(=O)O[C@H]1CCN2CC=C(COC(=O)[C@@](O)([C@H](C)OC)C(C)(C)O)[C@H]12
T/C (dose: 12.0 mg/kg/injection, schedule: Q01DX007 (ip), vehicle: carboxymethylcellulose (CMC)): 117 % of control
T/C (dose: 18.0 mg/kg/injection, schedule: Q01DX007 (ip), vehicle: carboxymethylcellulose (CMC)): 73 % of control
T/C (dose: 26.6 mg/kg/injection, schedule: Q01DX007 (ip), vehicle: carboxymethylcellulose (CMC)): 48 % of control
T/C (dose: 40.0 mg/kg/injection, schedule: Q01DX007 (ip), vehicle: carboxymethylcellulose (CMC)): 40 % of control

O=C(O)C(=O)c1ccc(-c2ccccc2)cc1
T/C (dose: 4.0 mg/kg/injection, schedule: Q01DX007 (ip), vehicle: carboxymethylcellulose (CMC)): 83 % of control
T/C (dose: 8.0 mg/kg/injection, schedule: Q01DX007 (ip), vehicle: carboxymethylcellulose (CMC)): 106 % of control
T/C [7]: 71 % of control
T/C (dose: 32.0 mg/kg/injection, schedule: Q01DX007 (ip), vehicle: carboxymethylcellulose (CMC)): 80 % of control

CCN(CC)c1ccc(/C=C/c2ccnc3ccccc23)cc1
T/C (dose: 1.94 mg/kg/injection, schedule: Q01DX007 (ip), vehicle: carboxymethylcellulose (CMC)): 77 % of control
T/C (dose: 3.88 mg/kg/injection, schedule: Q01DX007 (ip), vehicle: carboxymethylcellulose (CMC)): 66 % of control
T/C (dose: 6.2 mg/kg/injection, schedule: Q01DX007 (ip), vehicle: other): 63 % of control
T/C (dose: 7.5 mg/kg/injection, schedule: Q01DX007 (ip), vehicle: other): 96 % of control
T/C (dose: 7.75 mg/kg/injection, schedule: Q01DX007 (ip), vehicle: carboxymethylcellulose (CMC)): 40 % of control
T/C (dose: 7.75 mg/kg/injection, schedule: Q01DX007 (ip), vehicle: other): 58 % of control
T/C (dose: 10.0 mg/kg/injection, schedule: Q01DX007 (ip), vehicle: other): 107 % of control
T/C (dose: 10.33 mg/kg/injection, schedule: Q01DX007 (ip), vehicle: other): 72 % of control
T/C (dose: 12.0 mg/kg/injection, schedule: Q01DX007 (ip), vehicle: other): 110 % of control
T/C (dose: 12.31 mg/kg/injection, schedule: Q01DX007 (ip), vehicle: carboxymethylcellulose (CMC)): 93 % of control and 110 % of control
T/C (dose: 15.5 mg/kg/injection, schedule: Q01DX007 (ip), vehicle: other): 90 % of control
T/C (dose: 24.62 mg/kg/injection, schedule: Q01DX007 (ip), vehicle: carboxymethylcellulose (CMC)): 59 % of control and 70 % of control
T/C (dose: 49.25 mg/kg/injection, schedule: Q01DX007 (ip), vehicle: carboxymethylcellulose (CMC)): 53 % of control

Cc1nc(C(N)=O)nc2ccccc12
T/C (dose: 62.5 mg/kg/injection, schedule: Q#A X014 (ip), vehicle: methylcellulose (MC)): 64 % of control and 81 % of control
T/C (dose: 200.0 mg/kg/injection, schedule: Q01DX007 (ip), vehicle: carboxymethylcellulose (CMC)): 64 % of control and 65 % of control
T/C (dose: 250.0 mg/kg/injection, schedule: Q#A X014 (ip), vehicle: methylcellulose (MC)): 36 % of control
